Paper PMC8291587, “Guanidine Derivatives: How Simple Structural Modification of Histamine H3R Antagonists Has Led to the Discovery of Potent Muscarinic M2R/M4R Antagonists” (ACS Chemical Neuroscience, 2021)

Assays:
hH3R = target: T1, hH3R (Homo sapiens, UniProt Q9Y5N1); assay: hH3R radioligand displacement binding assay ([3H]-Nα-methylhistamine, HEK-293 cell membranes); settings: [3H]-Nα-methylhistamine; HEK-293 membranes; read-out: hH3R -log(Ki) ± sem (converted)
T1 construct: expressed in transfected cells; membrane fractions
Procedure: [^3H]-N^α-Methylhistamine was used as a radiolabeled ligand.
The radioligand displacement binding assay was performed in membrane fractions of HEK-293 cells stably expressing hH3R. Cell cultivation and membrane preparation were performed according to Kottke et al.[43] […] The total assay volume was set to 200 μL. The compounds were tested in several appropriate concentrations between 100 μM and 0.1 nM. Pipetting was partly done by Freedom Evo (Tecan). […] The membrane fraction (20 μg/well), test compounds, and radiolabeled ligand were incubated for 90 min at 25 °C while shaking. The bound radioligand was separated from free radioligand by filtration through GF/B filters pretreated with 0.3% (m/v) polyethylenimine using a cell harvester. Radioactivity was determined by liquid scintillation counting using a MicroBeta Trilux (PerkinElmer). The data were obtained in duplicates in at least three independent experiments. Nonspecific binding was subtracted from the raw data to calculate specific-binding values. The evaluation was performed with GraphPad Prism 6.1 (San Diego, CA, USA) using nonlinear regression (one-site competition with a logarithmic scale). The Ki values were calculated from the IC50 values using the Cheng–Prusoff equation.[44] The statistical calculations were performed on −log Ki. The mean values and 95% confidence intervals were transformed to nanomolar concentrations.

H3R = H3R agonism check with thioperamide on electrically stimulated guinea pig ileum; settings: thioperamide as H3R antagonist
Procedure: A standard ex vivo assay based on the relaxant response of histamine H3R agonists to electrically driven guinea pig ileum was used to test the influence of ADS compounds on the reduction of electrically evoked tissue contraction. […] The −log EC50 value for RAMH and ADS compounds were evaluated. […] Following this, we decided to evaluate the ADS series as potential M2R/M3R ligands on the isolated guinea pig ileum.
Male guinea pigs, weighing 300–400 g, were euthanized by a blow to the neck. A 20–30 cm length of the distal ileum, apart from the terminal 5 cm, was rapidly removed and placed in phosphate buffer at room temperature (pH 7.4) containing (mM) NaCl (136.9), KCl (2.6), KH2PO4 (1.47), Na2HPO4 (9.58), and indomethacin (1 × 10^–6 mol/L)). The intraluminal content was rinsed, and the isolated intestine was cut into 1.5–2 cm segments. The preparations were mounted between two platinum electrodes isotonically in a 20 mL organ bath filled with Krebs buffer: composition (mM) NaCl (118), KCl (5.6), MgSO4 (1.18), CaCl2 (2.5), NaH2PO4·H2O (1.28), NaHCO3 (25), glucose (5.55), and indomethacin (3 × 10^–7 mol/L). […] Cumulative concentration–response curve was determined to RAMH or tested agonist (10 nM to 10 mM) at increasing concentrations spaced by 3- or 3.3-fold. The agonist potency is expressed as pD2 value (−log EC50) ± sem.

M3R = target: T2, M3R (Homo sapiens, UniProt P20309); assay: Intracellular Ca2+ measurement, functional response to ACh, M3R in CHO cells; assay type: cell-based; settings: antagonism of ACh-induced Ca2+ response, read-out: pKB M3R (converted)
T2 construct: host or cells: CHO cells (whole cells, Fura-2)
Procedure: (§1) Linear Schild plot indicates the competitive interaction (slope = 1) of the tested compound (Supporting Information, Figure S55).
(§2) Intracellular Ca^2+ level was taken as a functional response to ACh. Black 96-well plates were seeded with 12,000 CHO cells per well. After two days of cultivation in DMEM at 37 °C under a humidified atmosphere containing 5% CO2, cells were washed with Krebs-HEPES buffer (KHB) (composition: (mM) NaCl (138), KCl (4), CaCl2 (1.3), MgCl2 (1), NaH2PO4 (1.2), HEPES (20), glucose (10), pH adjusted to 7.4) KHB was loaded with 5 μM Fura-2 (Sigma-Aldrich) for 1 h. The cells were washed with fresh KHB and preincubated with tested compounds for 1 h. Then plates were placed in a Cytation 3 reader. The first basal level (fluorescence dual excitation at 340 and 380 nm, emission at 510 nm) was measured. Following this, ACh was added to the desired concentration (ranging from 10 pM to 100 μM) by instrument injectors, and fluorescence was measured immediately. Intracellular Ca^2+ level was calculated as a ratio of 340 to 380 nm excitation fluorescence. […]
(§3) The intracellular level of calcium at various concentrations of ACh was measured. […] From a series of EC50 values of apparent inhibition constant KB was calculated by fitting eq 5 to dose ratio (DR) induced by tested compound at a given concentration: [drawing 5] […]

muscarinic M2R = target: T3, muscarinic M2R (Homo sapiens, UniProt P08172); assay: Intracellular Ca2+ measurement, functional response to ACh, M2R in CHO cells; assay type: cell-based
T3 construct: host or cells: CHO cells (whole cells, Fura-2)
T3 sequence (P08172 1-466): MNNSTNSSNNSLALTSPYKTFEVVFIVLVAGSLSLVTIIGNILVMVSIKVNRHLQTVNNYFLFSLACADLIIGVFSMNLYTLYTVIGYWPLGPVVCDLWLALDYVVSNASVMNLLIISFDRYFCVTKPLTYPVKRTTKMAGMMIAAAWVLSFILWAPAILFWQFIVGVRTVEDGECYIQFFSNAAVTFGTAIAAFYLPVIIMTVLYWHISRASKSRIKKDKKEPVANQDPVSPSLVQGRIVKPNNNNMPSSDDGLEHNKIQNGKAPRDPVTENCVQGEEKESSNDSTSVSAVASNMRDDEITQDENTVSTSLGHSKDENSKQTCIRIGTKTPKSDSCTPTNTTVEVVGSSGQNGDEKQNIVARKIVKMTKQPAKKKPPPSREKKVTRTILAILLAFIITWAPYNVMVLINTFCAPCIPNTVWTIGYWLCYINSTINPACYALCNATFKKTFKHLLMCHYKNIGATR
Procedure: as §1, §2, §3

T1 sequence (Q9Y5N1 whole entry): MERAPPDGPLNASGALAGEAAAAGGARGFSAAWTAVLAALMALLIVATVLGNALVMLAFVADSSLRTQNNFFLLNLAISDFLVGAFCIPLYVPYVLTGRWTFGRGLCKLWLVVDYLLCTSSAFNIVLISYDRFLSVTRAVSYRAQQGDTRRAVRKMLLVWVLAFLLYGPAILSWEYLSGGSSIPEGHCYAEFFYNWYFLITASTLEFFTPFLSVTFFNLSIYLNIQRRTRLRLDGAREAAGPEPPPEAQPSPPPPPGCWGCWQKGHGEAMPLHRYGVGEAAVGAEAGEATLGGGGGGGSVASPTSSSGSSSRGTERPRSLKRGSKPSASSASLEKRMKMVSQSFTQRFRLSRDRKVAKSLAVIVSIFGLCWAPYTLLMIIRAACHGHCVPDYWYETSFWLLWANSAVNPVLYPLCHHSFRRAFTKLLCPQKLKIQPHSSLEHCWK
T2 sequence (P20309 whole entry): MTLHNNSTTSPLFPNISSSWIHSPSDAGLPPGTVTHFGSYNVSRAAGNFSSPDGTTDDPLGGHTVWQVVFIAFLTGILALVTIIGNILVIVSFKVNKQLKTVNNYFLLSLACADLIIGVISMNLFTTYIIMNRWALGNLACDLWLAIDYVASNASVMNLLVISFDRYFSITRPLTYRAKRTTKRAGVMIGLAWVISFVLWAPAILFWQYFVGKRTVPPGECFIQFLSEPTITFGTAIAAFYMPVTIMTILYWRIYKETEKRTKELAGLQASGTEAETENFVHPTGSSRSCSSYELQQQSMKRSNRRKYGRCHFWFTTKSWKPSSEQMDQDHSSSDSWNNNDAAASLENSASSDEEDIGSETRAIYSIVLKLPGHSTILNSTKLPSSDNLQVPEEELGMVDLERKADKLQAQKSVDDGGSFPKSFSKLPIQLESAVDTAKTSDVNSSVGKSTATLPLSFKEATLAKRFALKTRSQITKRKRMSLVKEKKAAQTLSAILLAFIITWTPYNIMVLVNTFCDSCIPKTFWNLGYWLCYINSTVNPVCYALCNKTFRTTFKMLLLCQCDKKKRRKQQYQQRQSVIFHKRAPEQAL

SMILES | Ki (hH3R) | shift of the concentration–response curve with or without thioperamide (H3R agonism) (H3R) | Kb (M3R) | Kb (muscarinic M2R; antagonism of ACh-induced Ca2+ response, CHO cells, read-out: pKB M2R (converted)) | Schild plot slope (muscarinic M2R; linear Schild plot, competitive interaction, M2R and M3R Ca2+ assays)
[H]/N=C(/N)N(CCCCN1CCN(CC2CCC(COc3ccccc3)CC2)CC1)Cc1ccc(C(F)(F)F)cc1 (stereo not drawn) [ADS10239] | 2340 nM |  |  |  | 
N=C(N)N(CCCCN1CCN(C[C@H]2CC[C@@H](COc3ccccc3)CC2)CC1)Cc1ccccc1 [ADS10227, 1-{4-{4-{[4-(phenoxymethyl)cyclohexyl]methyl}piperazin-1-yl}but-1-yl}-1-(benzyl)guanidine] | 5890 nM | no shifts | 37.2 nM | 6.76 nM | 1
